Experimental data taken from patent publication US7732160B2, “Methamphetamine derivatives and conjugates for immunoassay” (Roche Diagnostics Operations, Inc., priority 2004, dated 2010).

What was measured:
[1] = tested on: monoclonal antibody NEAMP 48.2; test: Microparticle agglutination immunoassay with conjugate (12) and N-ethylamphetamine antibody-coated particles, percent cross-reactivity; assay type: binding; conditions: NEAMP 48.2 antibody with conjugate (12)
Protocol: The conjugate reagent was prepared as described in Example 16.
An antibody-coated microparticle was prepared as described in Example 16 using monoclonal antibody NEAMP 48.2 described in U.S. 2004/0077021. A microparticle reagent was then prepared as described in Example 16.
The assay was carried out on a Roche/Hitachi 917 analyzer as described in Example 16.
Percent cross-reactivity was determined in an ammunoassay. A standard curve was established using known amounts of the target analyte methylenedioxyethylamphetamine (MDEA). Known amounts of various amphetamine-related drugs were to be analyzed as samples in the immunoassay, and apparent concentrations of these drugs were generated from the standard curve. Apparent concentration of the drug, divided by actual concentration and multiplied by 100, is the percent cross-reactivity of this drug.

[2] = tested on: monoclonal antibody specific for methamphetamine; test: Microparticle agglutination immunoassay with conjugate (12) and methamphetamine antibody-coated particles, percent cross-reactivity; assay type: binding; conditions: methamphetamine antibody with conjugate (12)

SMILES	Cross-reactivity [1]	Cross-reactivity [2]
CC(C)(N)Cc1ccccc1 [Phentermine]	essentially none	–
CNC(C)Cc1ccc2c(c1)OCO2 (centres unmarked) [MDMA, 3,4-methylenedioxy-N-methylamphetamine]	–	good cross-reactivity
CCNC(C)Cc1ccc2c(c1)OCO2 (centres unmarked) [MDEA, 3,4-methylenedioxy-N-ethylamphetamine]	good cross-reactivity	–
CN[C@@H](C)[C@@H](O)c1ccccc1 [d-pseudoephedrine]	essentially none	–
NCCc1ccc(O)cc1 [Tyramine]	essentially none	–
CN[C@@H](C)Cc1ccccc1 [d-Methamphetamine]	–	good cross-reactivity
CN[C@@H](C)[C@H](O)c1ccccc1 [l-ephedrine]	essentially none	–
CCC(Cc1ccc2c(c1)OCO2)NC (centres unmarked) [MBDB, 3,4-methylenedioxyphenyl-N-methylbutanamine]	–	good cross-reactivity
